The test concerns the target N-terminal methyltransferase1 (NTMT1) (Homo sapiens (Human), UniProt Q9BV86). In words: NTMT1 inhibition IC50, SAH hydrolase-coupled fluorescence assay. Format: biochemical. Here is the method: The inhibitors ranging in concentration from (2 μL of 0.14 μM-1 mM) and following a three-fold dilution were incubated with 0.2 μM NTMT1 with a reaction mixture which was added in the following order: H2O, 10× Tris-HCl Buffer (2 μL of 250 mM Tris pH 7.4, 100 mM NaCl, and 500 mM KCl), SAH hydrolase (1 μL of 100 μM), SAM (0.2 μL of 10 mM), NTMT1 (1 μL of 4 μM) and ThioGlo1 (0.2 μL of 1.5 mM DMSO solution). After 10 mins of incubation at 37° C., the reaction was initiated with 1 μM of GPKRIA. Fluorescence intensity was monitored using a BMG ClarioStar microplate reader (Ex=380 nm, Em=510 nm) at 37° C. for 15 min. The rates were fit to the log[inhibitor] vs response model using least squares nonlinear regression through GraphPad Prism 7 software. All experiments were performed in triplicate.

[1] abbreviates: 0.2 μM NTMT1, 1 μM GPKRIA peptide substrate, 37° C., ThioGlo1 fluorescence.

Read-outs that look alike come from different tables or passages of the source. Non-standard residues stand in square brackets, D forms with d. Residues, ends and D or L forms follow the SMILES beside them. *: point of attachment. Acetyl(1-naphthyl) = O=C(Cc1cccc2ccccc12)*; dHpg = N[C@@H](C(=O)O)c1ccc(O)cc1; Hpg = N[C@H](C(=O)O)c1ccc(O)cc1; Pra = C#CC[C@H](N)C(=O)O; X1 = O=C(Cc1ccc(O)cc1)*; ClAc = O=C(CCl)* A value given as a limit tells only on which side of the number the result lay.

Sequence of N-terminal methyltransferase1 (NTMT1) (Q9BV86 1-222): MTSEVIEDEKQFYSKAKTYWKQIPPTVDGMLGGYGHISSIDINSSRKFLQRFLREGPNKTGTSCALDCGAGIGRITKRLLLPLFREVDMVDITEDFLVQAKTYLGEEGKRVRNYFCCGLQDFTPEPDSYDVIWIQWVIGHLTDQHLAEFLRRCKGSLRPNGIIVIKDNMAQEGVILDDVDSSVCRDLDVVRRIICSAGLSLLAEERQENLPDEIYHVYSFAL

`C#CC[C@H](NC(=O)[C@H](CCCNC(=N)N)NC(=O)[C@H](CCCCN)NC(=O)[C@@H]1CCCN1C(=O)Cc1cccc2ccccc12)C(N)=O` [Compound 26, (S)—N—((S)-6-amino-1-(((S)-1-(((S)-1-amino-1-oxopent-4-yn-2-yl)amino)-5-guanidino-1-oxopentan-2-yl)amino)-1-oxohexan-2-yl)-1-(2-(naphthalen-1-yl)acetyl)pyrrolidine-2-carboxamide] ({Acetyl(1-naphthyl)}-PKR[Pra]-NH2): the IC50 (usually the point on the concentration scale where inhibition reaches its midpoint) worked out at 90 nM.

Take `N=C(N)NCCC[C@H](NC(=O)[C@H](CCCCN)NC(=O)[C@@H]1CCCN1C(=O)[C@@H](NC(=O)Cc1ccc(O)cc1)c1ccc(O)cc1)C(N)=O` [Compound 22, (S)—N—((S)-6-amino-1-(((S)-1-amino-5-guanidino-1-oxopentan-2-yl)amino)-1-oxohexan-2-yl)-1-((S)-2-(4-hydroxyphenyl)-2-(2-(4-hydroxyphenyl)acetamido)acetyl)pyrrolidine-2-carboxamide] (X1-[Hpg]PKR-NH2): the IC50 is > 100000 nM.

Molecule `N=C(N)NCCC[C@H](NC(=O)[C@H](CCCNC(=N)N)NC(=O)[C@H](CCCCN)NC(=O)[C@@H]1CCCN1C(=O)Cc1cccc2ccccc12)C(N)=O` [Compound 25, (S)—N—((S)-6-amino-1-(((S)-1-(((S)-1-amino-5-guanidino-1-oxopentan-2-yl)amino)-5-guanidino-1-oxopentan-2-yl)amino)-1-oxohexan-2-yl)-1-(2-(naphthalen-1-yl)acetyl)pyrrolidine-2-carboxamide] ({Acetyl(1-naphthyl)}-PKRR-NH2) registered an IC50 of 40 nM.

As to `N=C(N)NCCC[C@H](NC(=O)[C@H](CCCCN)NC(=O)[C@@H]1CCCN1C(=O)Cc1cccc2ccccc12)C(N)=O` [Compound 1, (S)—N—((S)-6-amino-1-(((S)-1-amino-5-guanidino-1-oxopentan-2-yl)amino)-1-oxohexan-2-yl)-1-(2-(naphthalen-1-yl)acetyl)pyrrolidine-2-carboxamide], half-maximal inhibition (IC50) was put at 400 ± 30 nM.

Under setting [1], `NCCCC[C@H](NC(=O)[C@@H]1CCCN1C(=O)Cc1cccc2ccccc12)C(=O)N[C@@H](CCC(=O)O)C(N)=O` [Compound 39, (S)-5-amino-4-((S)-6-amino-2-((S)-1-(2-(naphthalen-1-yl)acetyl)pyrrolidine-2-carboxamido)hexanamido)-5-oxopentanoic acid] had a half-inhibitory concentration (IC50) of 5760 nM.

In the case of `N=C(N)NCCC[C@H](NC(=O)[C@H](CCCCN)NC(=O)[C@@H]1CCCN1C(=O)[C@@H]1CCCN1C(=O)CCl)C(=O)O` [Compound 12, (2-chloroacetyl)-L-prolyl-L-prolyl-L-lysyl-L-arginine] (ClAc-PPKR-OH), 16000 ± 5900 nM corresponded to half-maximal inhibition under setting [1] (IC50).

On to `N=C(N)NCCC[C@H](NC(=O)[C@H](CCCCN)NC(=O)[C@@H]1CCCN1C(=O)Cc1cccc2[nH]ccc12)C(N)=O` [Compound 4, (S)-1-(2-(1H-indol-4-yl)acetyl)-N—((S)-6-amino-1-(((S)-1-amino-5-guanidino-1-oxopentan-2-yl)amino)-1-oxohexan-2-yl)pyrrolidine-2-carboxamide], for which, under setting [1], the IC50 turned out to be 160 ± 70 nM. This IC50 lies about 100-fold lower than the previous one.

`CC[C@H](C)[C@H](NC(=O)[C@H](CCCNC(=N)N)NC(=O)[C@H](CCCCN)NC(=O)[C@@H]1CCCN1C(=O)Cc1cccc2ccccc12)C(N)=O` [Compound 24, (S)—N—((S)-6-amino-1-(((S)-1-(((2S,3S)-1-amino-3-methyl-1-oxopentan-2-yl)amino)-5-guanidino-1-oxopentan-2-yl)amino)-1-oxohexan-2-yl)-1-(2-(naphthalen-1-yl)acetyl)pyrrolidine-2-carboxamide] ({Acetyl(1-naphthyl)}-PKRI-NH2) gave an IC50 of 60 nM. This lies in the double-digit nanomolar range.

`N=C(N)NCCC[C@H](NC(=O)[C@H](CCCCN)NC(=O)[C@@H]1CCCN1C(=O)Cc1cccc2ccccc12)C(=O)N[C@@H](Cc1ccc(O)cc1)C(N)=O` [Compound 44, (S)—N—((S)-6-amino-1-(((S)-1-(((S)-1-amino-3-(4-hydroxyphenyl)-1-oxopropan-2-yl)amino)-5-guanidino-1-oxopentan-2-yl)amino)-1-oxohexan-2-yl)-1-(2-(naphthalen-1-yl)acetyl)pyrrolidine-2-carboxamide] ({Acetyl(1-naphthyl)}-PKRY-NH2) returned an IC50 of 79 ± 13 nM.

Molecule `N=C(N)NCCC[C@H](NC(=O)[C@H](CCCCN)NC(=O)[C@@H]1CCCN1C(=O)/C=C/c1ccc(O)cc1)C(N)=O` [Compound 17, (S)—N—((S)-6-amino-1-(((S)-1-amino-5-guanidino-1-oxopentan-2-yl)amino)-1-oxohexan-2-yl)-1-((E)-3-(4-hydroxyphenyl)acryloyl)pyrrolidine-2-carboxamide] gave an IC50 of 2500 nM. Against the preceding molecule, the IC50 is about 32-fold higher.

With `N=C(N)NCCC[C@H](NC(=O)[C@H](CCCCN)NC(=O)[C@@H]1CCCN1C(=O)[C@@H](NCCc1ccc(O)cc1)c1ccc(O)cc1)C(N)=O` [Compound 47, (S)—N—((S)-6-amino-1-(((S)-1-amino-5-guanidino-1-oxopentan-2-yl)amino)-1-oxohexan-2-yl)-1-((S)-2-((4-hydroxyphenethyl)amino)-2-(4-hydroxyphenyl)acetyl)pyrrolidine-2-carboxamide], the IC50 is > 100000 nM.

On to `NCCCC[C@H](NC(=O)CN(C(=O)Cc1cccc2ccccc12)C1CCCC1)C(N)=O` [Compound 10, (S)-6-amino-2-(2-(N-cyclopentyl-2-(naphthalen-1-yl)acetamido)acetamido)hexanamide], for which the IC50 under setting [1] is > 100000 nM.

`N=C(N)NCCC[C@H](NC(=O)[C@H](CCCNC(=N)N)NC(=O)[C@H](CCCNC(=N)N)NC(=O)[C@H](CCCNC(=N)N)NC(=O)[C@H](CCCNC(=N)N)NC(=O)[C@H](CCCNC(=N)N)NC(=O)[C@H](CCCCN)NC(=O)[C@@H]1CCCN1C(=O)Cc1cccc2ccccc12)C(N)=O` [Compound 34, (S)—N-((6S,9S,12S,15S,18S,21S,24S)-1,28-diamino-6-carbamoyl-9,12,15,18,21-pentakis(3-guanidinopropyl)-1-imino-8,11,14,17,20,23-hexaoxo-2,7,10,13,16,19,22-heptaazaoctacosan-24-yl)-1-(2-(naphthalen-1-yl)acetyl)pyrrolidine-2-carboxamide] ({Acetyl(1-naphthyl)}-PKRRRRRR-NH2): 68 nM corresponded to half-maximal inhibition under setting [1] (IC50). This counts as double-digit nanomolar.

With `N=C(N)NCCC[C@H](NC(=O)[C@H](CCCCN)NC(=O)[C@@H]1CCCN1C(=O)Cc1ccc(CO)cc1)C(N)=O` [Compound 18, (S)—N—((S)-6-amino-1-(((S)-1-amino-5-guanidino-1-oxopentan-2-yl)amino)-1-oxohexan-2-yl)-1-(2-(4-(hydroxymethyl)phenyl)acetyl)pyrrolidine-2-carboxamide], the half-maximal inhibitory concentration (IC50) under setting [1] was determined as 1500 nM.

For `N=C(N)NCCC[C@H](NC(=O)[C@H](CCCCN)NC(=O)[C@@H]1CCCN1C(=O)[C@H](NC(=O)Cc1ccc(O)cc1)c1ccc(O)cc1)C(N)=O` [Compound 21, (S)—N—((S)-6-amino-1-(((S)-1-amino-5-guanidino-1-oxopentan-2-yl)amino)-1-oxohexan-2-yl)-1-((R)-2-(4-hydroxyphenyl)-2-(2-(4-hydroxyphenyl)acetamido)acetyl)pyrrolidine-2-carboxamide] (X1-[dHpg]PKR-NH2), the IC50 was > 100000 nM.

Regarding `N=C(N)NCCC[C@H](NC(=O)[C@H](CCCCN)NC(=O)[C@@H]1CCCN1C(=O)[C@H](NCCc1ccc(O)cc1)c1ccc(O)cc1)C(N)=O` [Compound 23, (S)—N—((S)-6-amino-1-(((S)-1-amino-5-guanidino-1-oxopentan-2-yl)amino)-1-oxohexan-2-yl)-1-((R)-2-((4-hydroxyphenethyl)amino)-2-(4-hydroxyphenyl)acetyl)pyrrolidine-2-carboxamide], the IC50 was > 100000 nM.

Turning to `NCCCC[C@H](NC(=O)c1cn(CC(=O)Nc2ccccc2)nn1)C(N)=O` [Compound 11, (S)—N-(1,6-diamino-1-oxohexan-2-yl)-1-(2-oxo-2-(phenylamino)ethyl)-1H-1,2,3-triazole-4-carboxamide], the IC50 under setting [1] was > 100000 nM.

Regarding `N=C(N)NCCC[C@H](NC(=O)[C@H](CCCNC(=N)N)NC(=O)[C@H](CCCNC(=N)N)NC(=O)[C@H](CCC(N)=O)NC(=O)[C@H](CCCNC(=N)N)NC(=O)[C@H](CCCNC(=N)N)NC(=O)[C@H](CCCCN)NC(=O)[C@H](CCCCN)NC(=O)[C@H](CCCNC(=N)N)NC(=O)CNC(=O)[C@H](CCCNC(=N)N)NC(=O)[C@H](CCCCN)NC(=O)[C@@H]1CCCN1C(=O)Cc1ccc(O)cc1)C(=O)O` [Compound 32, (2-(4-hydroxyphenyl)acetyl)-L-prolyl-L-lysyl-L-arginylglycyl-L-arginyl-L-lysyl-L-lysyl-L-arginyl-L-arginyl-L-glutaminyl-L-arginyl-L-arginyl-L-arginine], under setting [1], it took 230 ± 30 nM to reach half-maximal inhibition (IC50).

`N=C(N)NCCC[C@H](NC(=O)[C@H](CCCCN)NC(=O)[C@@H]1CCCN1C(=O)Cc1cccc2ccccc12)C(=O)N[C@@H](Cc1c[nH]c2ccccc12)C(N)=O` [Compound 43] ({Acetyl(1-naphthyl)}-PKRW-NH2) came in with an IC50 of 95 ± 26 nM.
